The values that follow come from patent US20050107611A1, “Pyrazolyl-substituted triazoloquinoxalines” (priority 2001, published 2005).

Data set [1] concerns the target T1, human A3 adenosine receptor (Homo sapiens, UniProt P0DMS8).
T1 construct: expressed in transfected cells; host or cells: CHO cells
T1 sequence (P0DMS8 1-318): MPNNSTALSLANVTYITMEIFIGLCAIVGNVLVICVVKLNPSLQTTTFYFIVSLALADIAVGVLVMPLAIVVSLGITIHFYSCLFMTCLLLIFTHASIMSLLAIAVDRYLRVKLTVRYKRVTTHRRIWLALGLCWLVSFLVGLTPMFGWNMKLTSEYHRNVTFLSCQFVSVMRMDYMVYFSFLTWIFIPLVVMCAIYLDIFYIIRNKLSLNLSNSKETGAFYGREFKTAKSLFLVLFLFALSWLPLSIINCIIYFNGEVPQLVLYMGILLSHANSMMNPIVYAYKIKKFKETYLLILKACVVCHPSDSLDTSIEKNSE
Kind of data set: Receptor binding assay with [3H]PSB-11 on recombinant A3-adenosine receptors expressed in CHO cells. The settings on record: for Ki: Table 2, [3H]PSB-11, read-out: A3 K1. The text has this: (§1) The data of the biological tests that are cited below results from radioligand-binding assays on A1, A2A, A2B and A3 adenosine receptors (ARs).
(§2) The following selective radioligands are used in the biological tests: • [^3H]CCPA (for A1 ARs) [Klotz et al., Naunyn-Schmiedeberg's Arch. Pharmacol., 340, 679 (1989)] • [^3]MSX-2 (for A2A ARs) [Muiller et al., Eur. J. Pharm. Sci., 10, 259 (2000)] • [^3H]ZM241385 (for A2B ARs_[X.-D. Ji, K. A. Jacobson, Drug Des. Discov., 16, 217 (1999)] • [^3H]PSB-11 (new antagonistic radioligand for human A3 ARs) [M. Dieckmann, M. Thorand, V. Ozola, C. E. Muiller, in Vorbereitung [Preparation] (2001)]. • [^125I]AB-MECA (for rat-A3 ARs) [Olah et al., Mol. Pharmacol., 45, 978 (1994)]. Description of the Assays That are Used for Testing Substances Production of Tissue Preparations Made from Rat Brains
For CHO cells, which express the A3-adenosine receptor, the operating steps are also performed analogously to the A1-adenosine receptor-CHO culture. The medium is used as described above.
Preparation of Recombinant Human A3-Adenosine Receptors Expressed in CHO Cells for A3-Adenosine Receptor Binding Studies
2 to 3 ml of ice-cold TRIS buffer (pH 7.4; 50 mmol) is added to the tissue culture dishes. The cells are scraped off from the plates with a rubber scraper and collected in a beaker. The plates are rinsed with another 1 to 2 ml of TRIS buffer (pH 7.4; 50 mmol). The cell suspension is dispersed into centrifuge tubes and centrifuged at 4° C., 35,000 g, for 20 minutes. The supernatant is discarded, and the pellet is resuspended in TRIS buffer (pH 7.4; 50 mmol) with the homogenizer at the highest level for 3 to 4 seconds. This suspension is again centrifuged. The washing process is repeated another time. The pellet that is obtained is resuspended with the least possible TRIS buffer (pH 7.4; 50 mmol) and delivered in aliquots (0.25 ml and 0.5 ml).
The test substances are dissolved in DMSO to 10 mmol. The final concentration of DMSO in the assay is 2.5% for A1- and A2A-adenosine receptor assays and 1-2% for A2B- and A3-assays. Dilution series of the test substances are produced from the stock solution. Five to eight different test concentrations, which comprise 3 orders of magnitude (e.g., 1 nm to 1000 nm), are used.
Receptor Binding Assay with [^3H]PSB-11 on Recombinant A3-Adenosine Receptors Expressed in CHO Cells:
The assay is performed with […] according to the instructions under the receptor-binding assays with consideration for the above-listed amounts and solutions. The dilution in the assay is 1:50. The DMSO content is 2% here. The incubation at 23° C. in the oscillating water bath lasts for 45 minutes.
(§3) The mean value is calculated from three independent experiments. IC50 and K, values are obtained from the Cheng-Prusoff equation, the concentration and the KD value of the radioligand. For calculation, the program GraphPadPrism™, Version 3.0 (GraphPad, San Diego, Calif., USA), was used.

The target in data set [2] is T2, human A2B-receptor (Homo sapiens, UniProt P29275).
T2 construct: purchased Receptor Biology USA via Perkin Elmer Life Sciences, Cologne, Germany; host or cells: HEK cells (membranes)
T2 sequence (P29275 1-332): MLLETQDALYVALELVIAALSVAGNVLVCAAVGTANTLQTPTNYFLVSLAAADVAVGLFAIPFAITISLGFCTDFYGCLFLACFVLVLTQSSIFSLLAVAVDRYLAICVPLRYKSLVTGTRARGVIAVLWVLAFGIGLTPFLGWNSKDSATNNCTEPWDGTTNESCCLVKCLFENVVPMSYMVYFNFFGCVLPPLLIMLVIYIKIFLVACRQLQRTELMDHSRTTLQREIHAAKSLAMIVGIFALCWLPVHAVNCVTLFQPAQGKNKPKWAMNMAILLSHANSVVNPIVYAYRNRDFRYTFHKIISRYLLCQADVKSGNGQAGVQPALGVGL
Put plainly: Receptor binding assay with [3H]ZM241385 on recombinant A2B-adenosine receptors in HEK cells. The settings on record: for Ki: Table 2, [3H]ZM241385, read-out: A2B K1.
Source text: as §1, §2
In addition, A28-adenosine receptor membranes are prepared, whereby, for example, finished prepared membranes of HEK cells, which express the human A2B-receptor in high density (about 4 pmol/mg of protein), were available commercially (Receptor Biology USA via Perkin Elmer Life Sciences, Cologne, Germany).
The test substances are dissolved in DMSO to 10 mmol. The final concentration of DMSO in the assay is 2.5% for A1- and A2A-adenosine receptor assays and 1-2% for A2B- and A3-assays. Dilution series of the test substances are produced from the stock solution. Five to eight different test concentrations, which comprise 3 orders of magnitude (e.g., 1 nm to 1000 nm), are used. […]
as §3

For “4-(chloropyrazolyl)-1-(3-phenylpropyl)-[1,2,4-]triazolo[4,3-a]quinoxaline [Y = C—CH2—CH2—CH2-Ph, R5 = H, R6 = Cl]”, in data set [1], the “A3 % inhib. @ 1 μmol” value was “(32%)” and the Ki was above 1000 nM. In addition, in data set [2], the “A2B % inhib. @ 1 μmol” value is “(18%)” and the Ki was above 1000 nM.
On to `COc1ccc2c(c1)nc(-c1cc(Cl)n[nH]1)c1nnc(Cc3cccs3)n12` [4-[3(5)-Chloro-1H-pyrazol-5(3)-yl]-7-methoxy-1-(2-thienylmethyl)-[1,2,4]triazolo[4,3-a]-quinoxaline], for which, in data set [1], the Ki was determined as 1.9 nM. In data set [2], the “A2B % inhib. @ 1 μmol” value is listed as “(0%)” and the Ki was above 1000 nM.
For `Clc1cc(-c2nc3ccccc3n3c(-c4ccoc4)nnc23)n[nH]1` [Y = C-(3-Furyl), R5 = H, R6 = Cl], in data set [1], the “A3 % inhib. @ 1 μmol” value is on record as “(31%)” and the Ki was above 1000 nM. In data set [2], the “A2B % inhib. @ 1 μmol” value is listed as “(25%)” and the Ki was above 1000 nM.
For `Cn1nc(-c2nc3ccccc3n3c(Cc4cccs4)nnc23)cc1Cl` [Y = C—CH2-(2-Thienyl), R5 = CH3, R6 = Cl, 4-(5-Chloro-1H-1-methyl-pyrazol-3-yl)-1-(2-thienylmethyl)-[1,2,4]triazolo[4,3-a]-quinoxaline], the melting point lay within 205 to 207 °C. Moreover, the Ki in data set [1] worked out at 86 nM. For the same compound, in data set [2], the “A2B % inhib. @ 1 μmol” value is “(22%)” and the Ki was above 1000 nM.
As for `COc1ccc2c(c1)nc(-c1cc(Cl)[nH]n1)c1nncn12` [Y = C—H, R3 = OCH3, R5 = H, R6 = Cl, 4-[3(5)-Chloro-1H-pyrazol-5(3)-yl]-7-methoxy-[1,2,4]triazolo[4,3-a]-quinoxaline], the Ki in data set [1] amounted to 372 nM. Besides, in data set [2], the “A2B % inhib. @ 1 μmol” value is “(8%)” and the Ki is above 1000 nM.
In the same order, the values of `Clc1cc(-c2nc3ccccc3n3cnnc23)[nH]n1` [Y = C—H, R5 = H, R6 = Cl] are 142 nM, “(0%)” and above 1000 nM.
In the case of `Clc1cc(-c2nc3ccccc3n3nnnc23)n[nH]1` [Y = N, R5 = H, R6 = Cl, 4-[3(5)-Chloro-1H-pyrazol-5(3)-yl]tetrazolo[1,5-a]quinoxaline], the “A3 % inhib. @ 1 μmol” value in data set [1] was “(53%)”. In data set [2], the “A2B % inhib. @ 1 μmol” value is “(13%)” and the Ki was above 1000 nM.
